From patent US8187822B2, “Methods to identify modulators” (Givaudan S.A., priority 2007, dated 2012)
Entries after “also recorded” stand apart in the source; their conditions may differ. Like-named read-outs stand apart in the source and are kept apart here. Values belong to the compound of their own block, whether it stands above or below them.

Experiments:
[1] = tested on: cells expressing only Gα16gustducin44 but no TAS2 receptor; assay: Fluo-4 calcium assay, negative control cells without bitter receptor; format: cell-based; details: for Neg. Control ΔF/F0: 0.02% DMSO
Procedure: HEK293T/Gα16-gustducin 44 cells were used; they are formed as described in WO 2004/055048. The host cell line HEK-293T is commercially available from the American Tissue Culture Collection (ATCC), ATCC®# CRL-11268
(§1) At day 0, the HEK293T cell line expressing Gα16-gustducin44 and a TAS2R bitter taste receptor formed as described in examples 2b or 2c was seeded in antibiotic-free growth medium (standard DMEM with 10% (v/v) heat-inactivated fetal bovine serum, 2 mM L-glutamine[…]) into black wall/clear bottom 96-well plates, coated with poly(ethylenimine) (0.005% v/v) at a concentration of 15,000 cells per well and incubated for 48 hours in humidified atmosphere (37° C., 5% CO2).
(§2) At the time of the assay, the growth medium was discarded and the cells were in humidified atmosphere (37° C., 5% CO2) for 1 hour with 50 μl of loading buffer consisting of 1.5 μM Fluo-4 AM and […] probenicid (Sigma-Aldrich, St. Louis, Mo., US) in DMEM.
(§3) Afterwards, the 96-well plate was washed 5 times with 100 μl of assay buffer (130 mM NaCl, 5 mM KCl, 10 mM HEPES, 2 mM CaCl2, and 5 mM dextrose, pH 7.4) per well, using an automated plate washer (BioTek). The plate was further incubated for 30 minutes at room temperature in the dark to allow for complete de-esterification of the Fluo-4. Afterwards the plate was washed 5 times with 100 μl of assay buffer per well, and reconstituted with 100 μl of assay buffer per well.
(§4) For assay reading, the plate was placed in a Fluorometric Imaging Plate Reader (FLIPR) (FLIPR-TETRA™, Molecular Devices, Sunnyvale, Calif., US), and receptor activation was initiated by addition of 100 μl of a twofold concentrated agonist stock solution (to give the desired agonist end concentration when added to the 100 microliter assay buffer volume), which was prepared in assay buffer.
(§5) Fluorescence was continuously monitored for 20 seconds to give a signal baseline (averaged to give F0) prior to agonist addition and for 120 seconds after agonist addition. The change in signal divided by F0 gives ΔF/F0 indicated in the table, with ΔF being the maximum signal occurring within the 120 seconds minus the minimum signal (occurring within the 120 seconds after agonist addition.
The obtained calcium signals were corrected for the response of cells expressing only the G Protein α subunit (Gα16-gustducin44) and normalized to the fluorescence of cells prior to the stimulus using ΔF/F0 (Fmax−Fmin/F0).
To confirm that the cell line formed in example 2c stably expresses the bitter taste receptor TAS2R44, a concentration-response curve for saccharin, a known agonist of TAS2R44, was generated. […] The standard deviation (+/−STD) is also indicated.
As a negative control to determine unspecific signals, each of the applied concentrations of sucralose was applied to cells expressing only Gα16gustducin44.
As a negative control, each agonist and each agonist with the antagonist/test compound (test cpd A) is applied to cells expressing only Gal 6gustducin44 but no TAS2 receptor (see results in table 7 herein below).

TAS2R44 = biological target: T1, TAS2R44 (Homo sapiens, UniProt P59538, L162M); assay: Fluo-4 calcium assay, HEK293T cells expressing Gα16-gustducin44 and TAS2R44; format: cell-based; details: for Sucralose + test cpd A ΔF/F0: 25 μM test cpd A; for Sucralose + test cpd A ΔF/F0 / Sucralose ΔF/F0: TAS2R44 expressing cells; for TAS2R44 ΔF/F0: 0.02% DMSO
T1 construct: RSS tag (first 45 amino acids of rat somatostatin receptor subtype 3, plus EcoRI site) (N); expressed in transfected cells
T1 sequence (P59538 with tags, fused parts or gaps L162M): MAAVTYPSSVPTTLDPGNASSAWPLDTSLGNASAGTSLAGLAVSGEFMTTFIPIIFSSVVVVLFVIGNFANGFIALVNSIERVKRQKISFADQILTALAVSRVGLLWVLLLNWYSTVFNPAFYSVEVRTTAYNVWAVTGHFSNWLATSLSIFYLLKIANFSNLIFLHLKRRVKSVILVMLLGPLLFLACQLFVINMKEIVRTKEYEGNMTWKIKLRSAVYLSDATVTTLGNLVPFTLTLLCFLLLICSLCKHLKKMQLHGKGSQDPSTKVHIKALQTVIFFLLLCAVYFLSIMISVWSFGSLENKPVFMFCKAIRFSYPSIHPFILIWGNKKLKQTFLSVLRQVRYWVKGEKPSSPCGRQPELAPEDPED
Procedure: Cell lines that stably expresses a SABR (TAS2R44, TAS2R1, TAS2R10) was generated by transfecting pcDNA3.1Zeo-SABR into HEK293T/Gα16-gustducin 44 cells (both formed as described in example 1). The host cell line HEK-293T is commercially available from the American Tissue Culture Collection (ATCC), ATCC®# CRL-11268.
The expression of TAS2R44 was evaluated by testing for the presence of a functional response to the known TAS2R44 agonist saccharin (as described in WO 2004/029087) in addition to sucralose, which was determined via automated calcium imaging on the FLIPR-TETRA™ (Molecular Devices, Sunnyvale, Calif., US) as described in example 3. One clone was selected resulting in the HEK293T/Gα16-gustducin 44/TAS2R44 cell line.
Fluo-4AM (Invitrogen, Carlsbad, Calif., US) is a fluorescent indicator of intracellular calcium dynamics (change in concentration) and allows monitoring changes in the calcium concentration, particularly an increase in response to receptor activation occurring after agonist exposure.
as §1, §2, §3, §4, §5
All data was collected from at least two independent experiments each carried out in triplicate.
A concentration-response analysis was performed and EC50 values were calculated by nonlinear regression using the function f(x)=(a−d)/(1+(x/C)^nh)+d; with a=minimum signal, d=maximum signal, nh=hill coefficient, C=EC50, and x=agonist concentration. EC50 is the molar concentration of an agonist which produces 50% of the maximum possible effective response for that agonist.
The obtained calcium signals were corrected for the response of cells expressing only the G Protein α subunit (Gα16-gustducin44) and normalized to the fluorescence of cells prior to the stimulus using ΔF/F0 (Fmax−Fmin/F0). […]

- Sucralose + test cpd A ΔF/F0 (TAS2R44; sucralose 0.3906 mM): 0.011
- Sucralose + test cpd A ΔF/F0 (TAS2R44; sucralose 0.7813 mM): 0.010
- Sucralose + test cpd A ΔF/F0 (TAS2R44; sucralose 1.5625 mM): 0.016
- Sucralose + test cpd A ΔF/F0 (TAS2R44; sucralose 3.1250 mM): 0.005
- Sucralose + test cpd A ΔF/F0 (TAS2R44; sucralose 6.2500 mM): 0.000
- Sucralose + test cpd A ΔF/F0 (TAS2R44; sucralose 12.5000 mM): −0.015
- Sucralose + test cpd A ΔF/F0 (TAS2R44; sucralose 25.0000 mM): −0.035
- Sucralose + test cpd A ΔF/F0 (TAS2R44; sucralose 50.0000 mM): −0.025
- Sucralose + test cpd A ΔF/F0 (TAS2R44; sucralose 100.0000 mM): 0.107
SMILES: CC1=CCC(C/C=C/C(=O)O)C1(C)C (stereo not shown) [test cpd A, (E)-4-(2,2,3-trimethylcyclopent-3-enyl)but-2-enoic acid]
- Sucralose + test cpd A ΔF/F0 ([1]; 25 μM test cpd A, sucralose 100.0000 mM, cells without bitter receptor): −0.175
- effect on the response of TAS2R44 to sucralose, in words (TAS2R44; test compound at 25 μM): inhibited; also recorded: inhibit the response of a SABTR to sucralose

- EC50 (TAS2R44; agonist alone, stable TAS2R44 cell line (Examples 4, 5), read-out: calculated EC50 value): 16.7 ± 1.01 mM
- EC50 (TAS2R44; agonist sucralose alone, TAS2R44 (Example 9), read-out: EC50 Agonist): 36.3 ± 5.7 mM
- TAS2R44 ΔF/F0 (TAS2R44; sucralose 0.3906 mM): 0.023
- TAS2R44 ΔF/F0 (TAS2R44; sucralose 0.7813 mM): 0.025
- TAS2R44 ΔF/F0 (TAS2R44; sucralose 1.5625 mM): 0.026
- TAS2R44 ΔF/F0 (TAS2R44; sucralose 3.1250 mM): 0.043
- TAS2R44 ΔF/F0 (TAS2R44; sucralose 6.2500 mM): 0.059
- TAS2R44 ΔF/F0 (TAS2R44; sucralose 12.5000 mM): 0.109
- TAS2R44 ΔF/F0 (TAS2R44; sucralose 25.0000 mM): 0.197
- TAS2R44 ΔF/F0 (TAS2R44; sucralose 50.0000 mM): 0.256
- TAS2R44 ΔF/F0 (TAS2R44; sucralose 100.0000 mM): 0.260
- Sucralose ΔF/F0 (TAS2R44; sucralose alone 0.3906 mM (0.02% DMSO control of Example 9)): 0.046
- Sucralose ΔF/F0 (TAS2R44; sucralose alone 0.7813 mM (0.02% DMSO control of Example 9)): 0.038
- Sucralose ΔF/F0 (TAS2R44; sucralose alone 1.5625 mM (0.02% DMSO control of Example 9)): 0.042
- Sucralose ΔF/F0 (TAS2R44; sucralose alone 3.1250 mM (0.02% DMSO control of Example 9)): 0.030
- Sucralose ΔF/F0 (TAS2R44; sucralose alone 6.2500 mM (0.02% DMSO control of Example 9)): 0.027
- Sucralose ΔF/F0 (TAS2R44; sucralose alone 12.5000 mM (0.02% DMSO control of Example 9)): 0.051
- Sucralose ΔF/F0 (TAS2R44; sucralose alone 25.0000 mM (0.02% DMSO control of Example 9)): 0.110
- Sucralose ΔF/F0 (TAS2R44; sucralose alone 50.0000 mM (0.02% DMSO control of Example 9)): 0.192
- Sucralose ΔF/F0 (TAS2R44; sucralose alone 100.0000 mM (0.02% DMSO control of Example 9)): 0.352
SMILES: OC[C@H]1O[C@H](O[C@]2(CCl)O[C@H](CCl)[C@@H](O)[C@@H]2O)[C@H](O)[C@@H](O)[C@H]1Cl [Sucralose, sucralose]
- signal in negative control, in words ([1]; host cells expressing only Gα16-gustducin44): No significant change
- Neg. Control ΔF/F0 ([1]; sucralose 0.3906 mM): 0.014
- Neg. Control ΔF/F0 ([1]; sucralose 0.7813 mM): 0.014
- Neg. Control ΔF/F0 ([1]; sucralose 1.5625 mM): 0.017
- Neg. Control ΔF/F0 ([1]; sucralose 3.1250 mM): 0.012
- Neg. Control ΔF/F0 ([1]; sucralose 6.2500 mM): 0.017
- Neg. Control ΔF/F0 ([1]; sucralose 12.5000 mM): 0.016
- Neg. Control ΔF/F0 ([1]; sucralose 25.0000 mM): 0.016
- Neg. Control ΔF/F0 ([1]; sucralose 50.0000 mM): 0.018
- Neg. Control ΔF/F0 ([1]; sucralose 100.0000 mM): 0.021
- Sucralose ΔF/F0 ([1]; sucralose alone 100.0000 mM, cells without bitter receptor (Example 9)): −0.179
- agonist activity at TAS2R44 (calcium signaling), in words (TAS2R44; cells stably expressing human TAS2R44): significant increase in calcium signaling
